These results are taken from article PMC7048748, “Anxiolytic Drug FGIN-1-27 Ameliorates Autoimmunity by Metabolic Reprogramming of Pathogenic Th17 Cells” (Scientific Reports, 2020).

Test [1] relates to Th17 responses. Also noted: method as in PMID 19498172. Particulars: activation of the AAR; cited from earlier work.
Test [2] deals with Th17 cells. As to the kind of experiment: Rescue of IL-17 production by NAC pre-treatment. The format is cell-based, mouse. The settings on record: NAC 1 µM pre-treatment, 10 µM FGIN-1-27. On the procedure: Figure 5 FGIN-1-27 induces amino acid starvation response (AAR). (a) MA-plot showing shrunken log2 fold-changes of detected genes between the DMSO and FGIN-1-27 RNA-seq samples, ranked by average normalized count. Red dots indicate differentially expressed genes at adjusted p-value <0.05. (b) Transcript levels for the indicated genes after 24 hours of treatment with DMSO or FGIN-1-27 quantified by qPCR. The error bars represent SD. (c) Western blot analysis for phosphorylated eIF2α and ATF4 24 hours after treatment with DMSO or FGIN-1-27 (5 and 10 µM). Data are representative of 3 independent experiments. (d) Amino acids in Th17 cells measured 72 hours after treatment with FGIN-1-27. The error bars represent SD. (e) ROS was measured using cell permeant reagent 2′,7′ –dichlorofluorescin diacetate (DCFDA) at 24 hours following treatment with FGIN-1-27. Filled grey histogram-DMSO, dotted line-FGIN-1-27 (10 µM) and dashed line indicates FGIN-1-27 (5 µM). (f) Dose response plot showing effect of FGIN-1-27 on intracellular IL-17 after pre-treatment with NAC (1 µM). […]
Increased amino acid synthesis and transport is characteristic of the amino acid starvation response (AAR)[20]. […] Induction of ATF4 can be an indication of oxidative stress and we measured reactive oxygen species (ROS) using the cell permeant reagent 2′,7′ –dichlorofluorescin diacetate (DCFDA).

Regarding `O=C(CC1NCCCC1O)Cn1cnc2cc(Br)c(Cl)cc2c1=O` (centres unmarked) [halofuginone], in test [1], the Th17 responses entry was “down-regulate Th17 responses”.

Take `CC(=O)N[C@@H](CS)C(=O)O` [NAC, N-acetyl cysteine]: in test [2], the “rescue of defective IL-17 production” value is listed as 14%.
